Data published in patent US20220153732A1, “PROTEIN SECRETION INHIBITORS” (KEZAR LIFE SCIENCES, priority 2019, published 2022).
Read-outs that look alike come from different tables or passages of the source.

What was measured:
Type in all cases: cell-based
[1] = tested on: IL-2-FL/Gaussia Luciferase; assay: Dox Induced IL2-FL-Gluc Assay
Outline: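 Compounds were added together with doxycycline in DMSO/media and incubated at 37° C., 5% CO2. The cells were a stably selected line carrying IL-2-FL/Gaussia luciferase under T-REx inducible control. Structures drawn without stereochemistry were tested as stereoisomer mixtures.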

[2] = tested on: TNFα-FL/Gaussia Luciferase; assay: Dox Induced TNFα-FL-Gluc Assay
Outline: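 Compounds were added in doxycycline-containing DMSO/media to cells plated the previous day and incubated at 37° C under 5% CO2. These cells stably express a TNFα-FL/Gaussia luciferase cDNA whose expression is under T-REx (Dox-inducible) control, selected with Hygromycin and Blasticidin.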

[3] = tested on: human multiple myeloma cell line NCI-H929; assay: H929 Cell Viability Assay; settings: 48 hr, NCI-H929 cells, Celltiter-Glo, read-out: 48 hr H929 Viability Celltiter-Glo: Mean EC50
Experimental: Plates were incubated at 37° C., 5% CO2 for 48 hours. After 48 hours, Celltiter-Glo® (Promega) was added to each well and luciferase signal was quantified using Tecan Infinite M1000 Pro for cell viability determination.
For chemical structures that include one or more stereoisomers, but are illustrated without indicating stereochemistry, the assay data refers to a mixture of stereoisomers.

[4] = tested on: HER3-ss+4aa/Gaussia Luciferase; assay: Dox-Induced Her3-ss-Gluc Assay
Outline: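 Compounds, diluted in DMSO/media containing doxycycline, were incubated at 37° C., 5% CO2 with cells seeded one day earlier. The cells stably express HER3-ss+4aa/Gaussia luciferase under T-REx control. Where no stereochemistry is shown, data refer to the mixture of stereoisomers.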

[5] = tested on: human multiple myeloma cell line U266B1; assay: U266 Cell Viability Assay; settings: U-266, 48 hr, U266B1 cells, Celltiter-Glo, read-out: 48 hr U266 Viability Celltiter-Glo: Mean EC50
Outline: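 Viability measured by CellTiter-Glo luciferase signal after 48 h compound exposure (37 °C, 5% CO2) of U266B1 cells in 384-well format. Where stereochemistry is not shown, data refer to the stereoisomer mixture.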

[6] = tested on: PD1-ss+10aa/Gaussia Luciferase; assay: Dox-Induced PD1-ss-Gluc Assay
Outline: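 Compounds, diluted in DMSO/media with doxycycline, were added to cells plated a day earlier and kept at 37° C under 5% CO2. The cells stably express a Gaussia luciferase construct fused to PD1-ss+10aa, induced via the T-REx system. Unassigned stereochemistry means mixture data.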

[7] = 24 hr doxycycline induction, 293FRT/TO cells, Gaussia luciferase signal; read-out: 24 hr Dox Inducible IL2FLGIuc 293FRT/TO: Mean IC50
[8] = 24 hr doxycycline induction, 293FRT/TO cells, Gaussia luciferase signal; read-out: 24 hr Dox Inducible TNFaFLGluc 293FRT/TO: Mean IC50
[9] = 24 hr doxycycline induction, 293FRT/TO cells, Gaussia luciferase signal; read-out: 24 hr Dox Inducible Her3(ss + 4)Gluc 293FRT/TO: Mean IC50
[10] = 24 hr doxycycline induction, 293FRT/TO cells, Gaussia luciferase signal; read-out: 24 hr Dox Inducible PD1ssGluc 293FRT/TO: Mean IC50

SMILES | EC50 [3] [µM] | EC50 [5] [µM] | IC50 [1, 7] [µM] | IC50 [2, 8] [µM] | IC50 [4, 9] [µM] | IC50 [6, 10] [µM] | IC50 ([1]; read-out: 24 hr Dox Inducible IL2FLGIuc 293FRT/TO: Mean IC50; 24 hr doxycycline induction, 293FRT/TO cells, Gaussia luciferase signal) [µM] | IC50 ([2]; read-out: 24 hr Dox Inducible TNFaFLGluc 293FRT/TO: Mean IC50; 24 hr doxycycline induction, 293FRT/TO cells, Gaussia luciferase signal) [µM] | IC50 ([4]; read-out: 24 hr Dox Inducible Her3(ss + 4)Gluc 293FRT/TO: Mean IC50; 24 hr doxycycline induction, 293FRT/TO cells, Gaussia luciferase signal) [µM] | IC50 ([6]; read-out: 24 hr Dox Inducible PD1ssGluc 293FRT/TO: Mean IC50; 24 hr doxycycline induction, 293FRT/TO cells, Gaussia luciferase signal) [µM]
CC(C)OC(C)(C)c1csc(NC(=O)c2cccn2CC2CC(=O)N(C)C2)n1 (stereo not drawn) [Compound A210, N-(4-(2-isopropoxypropan-2-yl)thiazol-2-yl)-1-((1-methyl-5-oxopyrrolidin-3-yl)methyl)-1H-pyrrole-2-carboxamide] | > 25 | > 25 |  |  |  |  | > 25 | > 25 | > 25 | > 25
COc1cnccc1Cn1cccc1C(=O)Nc1nc(C(C)(C)OC(C)C)cs1 [Compound A211, N-(4-(2-isopropoxypropan-2-yl)thiazol-2-yl)-1-((3-methoxypyridin-4-yl)methyl)-1H-pyrrole-2-carboxamide] | > 25 | > 25 | 8.31 | > 25 | > 25 | 10 |  |  |  | 
O=C(Nc1nc(Cc2ccccc2)cs1)c1cccn1Cc1ccncc1NCc1ccccc1 [Compound A213, 1-((3-(benzylamino)pyridin-4-yl)methyl)-N-(4-benzylthiazol-2-yl)-1H-pyrrole-2-carboxamide] | 13.8 | 17.7 | 6.05 | > 25 | 4.94 | 12.1 |  |  |  | 
O=C(Nc1nc(C2CC2c2ccccc2)cs1)c1cccn1CCCc1ccncc1 [Compound A215, N-(4-((1R,2R)-2-phenylcyclopropypthiazol-2-yl)-1-(3-(pyridin-4-yl)propyl)-1H-pyrrole-2-carboxamide] | 13.1 | > 25 | 1.25 | 2.49 | 0.72 | 0.443 |  |  |  | 
O=C(Nc1nc(-c2ccccc2)cs1)c1cccn1Cc1ccncc1 [Compound A216, N-(4-phenylthiazol-2-yl)-1-(pyridin-4-ylmethyl)-1H-pyrrole-2-carboxamide] | > 25 | > 25 | 1.56 | 18.8 | 1.91 | 0.318 |  |  |  | 
O=C(Nc1nc(/C=C/c2ccc(F)cc2)cs1)c1cccn1Cc1ccncc1 [Compound A220, N-(4-(4-fluorostyryl)thiazol-2-yl)-1-(pyridin-4-ylmethyl)-1H-pyrrole-2-carboxamide] | > 25 | > 25 | 0.628 | 3.75 | 0.329 | 0.086 |  |  |  | 
O=C(Nc1nc(/C=C/c2ccoc2)cs1)c1cccn1Cc1ccncc1 [Compound A222, N-(4-(2-(furan-3-yl)vinyl)thiazol-2-yl)-1-(pyridin-4-ylmethyl)-1H-pyrrole-2-carboxamide] | 19.1 | > 25 | 2.27 | 7.7 | 1.8 | 0.348 |  |  |  | 
CC(C)(CCc1ccccc1)c1csc(NC(=O)c2cccn2Cc2ccncc2)n1 [Compound A225, N-(4-(2-methyl-4-phenylbutan-2-yl)thiazol-2-yl)-1-(pyridin-4-ylmethyl)-1H-pyrrole-2-carboxamide] | 8.89 | > 25 | 0.486 | 3.84 | 0.558 | 0.324 |  |  |  | 
CN(C)c1ccc(/C=C/c2csc(NC(=O)c3cccn3Cc3ccncc3)n2)cc1 [Compound A229] | 24.9 | > 25 | 1.05 | 4.58 | 0.568 | 0.066 |  |  |  | 
NC(=O)c1ccc(/C=C/c2csc(NC(=O)c3cccn3Cc3ccncc3)n2)cc1 [Compound A231] | 16.8 | > 25 | 7.07 | 11.2 | > 25 | 0.506 |  |  |  | 

Second part, led by results:

EC50 [3] [µM] | EC50 [5] [µM] | IC50 [1, 7] [µM] | IC50 [2, 8] [µM] | IC50 [4, 9] [µM] | IC50 [6, 10] [µM] | SMILES | IC50 ([1]; read-out: 24 hr Dox Inducible IL2FLGIuc 293FRT/TO: Mean IC50; 24 hr doxycycline induction, 293FRT/TO cells, Gaussia luciferase signal) [µM] | IC50 ([2]; read-out: 24 hr Dox Inducible TNFaFLGluc 293FRT/TO: Mean IC50; 24 hr doxycycline induction, 293FRT/TO cells, Gaussia luciferase signal) [µM] | IC50 ([4]; read-out: 24 hr Dox Inducible Her3(ss + 4)Gluc 293FRT/TO: Mean IC50; 24 hr doxycycline induction, 293FRT/TO cells, Gaussia luciferase signal) [µM] | IC50 ([6]; read-out: 24 hr Dox Inducible PD1ssGluc 293FRT/TO: Mean IC50; 24 hr doxycycline induction, 293FRT/TO cells, Gaussia luciferase signal) [µM]
2.99 | 3.76 | 4.57 | > 25 | 4.2 | 4.74 | CC(C)OC(C)(C)c1csc(NC(=O)c2cccn2Cc2ccncc2NCc2ccccc2)n1 [Compound A212, 1-((3-(benzylamino)pyridin-4-yl)methyl)-N-(4-(2-isopropoxypropan-2-yl)thiazol-2-yl)-1H-pyrrole-2-carboxamide] |  |  |  | 
> 25 | > 25 | 6.45 | > 25 | 6.7 | 4.55 | CC(C)OC(C)(C)c1csc(NC(=O)c2cccn2Cc2ccncc2C(F)(F)F)n1 [Compound A214, N-(4-(2-isopropoxypropan-2-yl)thiazol-2-yl)-1-((3-(trifluoromethyl)pyridin-4-yl)methyl)-1H-pyrrole-2-carboxamide] |  |  |  | 
> 21.5 | > 25 | 0.943 | 3.53 | 0.425 | 0.245 | O=C(Nc1nc(/C=C/Cc2ccccc2)cs1)c1cccn1CCCc1ccncc1 [Compound A217, N-(4-(3-phenylprop-1-en-1-yl)thiazol-2-yl)-1-(3-(pyridin-4-yl)propyl)-1H-pyrrole-2-carboxamide] |  |  |  | 
17.1 | > 25 | 0.779 | 3.03 | 0.315 | 0.131 | O=C(Nc1nc(/C=C/Cc2ccccc2)cs1)c1cccn1Cc1ccncc1 [Compound A218, N-(4-(3-phenylprop-1-en-1-yl)thiazol-2-yl)-1-(pyridin-4-ylmethyl)-1H-pyrrole-2-carboxamide] |  |  |  | 
8.6 | 13.7 | 0.443 | 0.946 | 0.234 | 0.048 | O=C(Nc1nc(/C=C/c2ccc(C(F)(F)F)cc2)cs1)c1cccn1Cc1ccncc1 [Compound A219, 1-(pyridin-4-ylmethyl)-N-(4-(4-(trifluoromethyl)styryl)thiazol-2-yl)-1H-pyrrole-2-carboxamide] |  |  |  | 
> 25 | > 25 | > 25 | > 25 | > 25 | > 25 | CC(C)OC(C)(C)c1csc(NC(=O)c2cccn2C/C=C/c2ccncc2)n1 [Compound A221, N-(4-(2-isopropoxypropan-2-yl)thiazol-2-yl)-1-(3-(pyridin-4-yl)allyl)-1H-pyrrole-2-carboxamide] |  |  |  | 
22.3 | > 25 | 8.04 | > 25 | 3.12 | 0.513 | CC(=O)Nc1ccc(/C=C/c2csc(NC(=O)c3cccn3Cc3ccncc3)n2)cc1 [Compound A223, N-(4-(4-acetamidostyryl)thiazol-2-yl)-1-(pyridin-4-ylmethyl)-1H-pyrrole-2-carboxamide] |  |  |  | 
20.5 | > 25 | > 25 | > 25 | 0.296 | 0.141 | N#Cc1ccc(/C=C/c2csc(NC(=O)c3cccn3Cc3ccncc3)n2)cc1 [Compound A224, N-(4-(4-cyanostyryl)thiazol-2-yl)-1-(pyridin-4-ylmethyl)-1H-pyrrole-2-carboxamide] |  |  |  | 
11.9 | > 25 | 0.32 | 7.08 | 0.426 | 0.302 | CC(C)OC(C)(C)c1csc(NC(=O)c2cccn2CCOc2ccncc2)n1 [Compound A226, N-(4-(2-isopropoxypropan-2-yl)thiazol-2-yl)-1-(2-(pyridin-4-yloxy)ethyl)-1H-pyrrole-2-carboxamide] |  |  |  | 
8.95 | > 21.4 | 0.625 | 1.9 | 0.379 | 0.053 | O=C(Nc1nc(/C=C/c2ccc([N+](=O)[O-])cc2)cs1)c1cccn1Cc1ccncc1 [Compound A227] |  |  |  | 
9.25 | > 25 | 0.933 | 3.59 | 0.73 | 0.335 | CC(C)(COc1ccccc1)c1csc(NC(=O)c2cccn2Cc2ccncc2)n1 [Compound A228] |  |  |  | 
